What was measured:
[1] = lipid maldigestion or malabsorption rat model (XENICAL/Orlistat), EPA in red blood cells and tissues; type: in vivo; details: for level of EPA incorporated in red blood cells: rats fed with XENICAL, day 7 (FIG. 3)
Method: The concept was tested in a lipid maldigestion or malabsorption rat model. The maldigestion or malabsorption condition was obtained using XENICAL® (ORLISTAT, tetrahydrolipstatin), a pancreatic and gastric lipases inhibitor. Rats were fed during 21 days with long-chain polyunsaturated fatty acid (LC-PUFA) supplements containing mainly eicosapentaenoic (EPA) acid. Fish oil was used as a source of triacylglycerols, and different EPA glycerides were evaluated: […] XENICAL® (ORLISTAT) was given at a level sufficient to decrease lipid absorption by 40%. A group receiving fish oil without XENICAL® (ORLISTAT) was used as a positive control. At different time intervals (D3, D7, […]), the fatty acid profiles of red blood cells and plasma lipids were determined. At the end of the experiment, the fatty acid profiles of different tissues were determined. The main objective was to follow the level of EPA in red blood cells and plasma lipids. The main comparison evaluated was the difference in EPA level between the group receiving EPA glycerides such as EPA-containing sn-1(3) MAG, in combination with XENICAL® (ORLISTAT) and the positive control group (fish oil+XENICAL® (ORLISTAT)).

[2] = clinical study: sn-1(3) MAG vs fish oil (TAG) delivering EPA under XENICAL-induced lipid maldigestion; type: in vivo, human
Method: This clinical study compared the efficacy of sn-1(3) MAG and fish oil (TAG) in delivering EPA in humans under lipid maldigestion conditions induced by XENICAL® (ORLISTAT). The comparison was tested in volunteers treated with XENICAL® to induce lipid maldigestion or not treated with XENICAL® (ORLISTAT). The primary objective was to assess accretion of EPA in erythrocytes over 21 days when consumed as fish oil (TAG) or sn-1(3) MAG. The secondary objectives were to assess accretion of EPA in plasma over 21 days and also to assess the pharmacokinetics of EPA after an acute dose either in the form of sn-1(3) MAG or TAG (AUC in chylomicrons over 10 hours postprandial). See FIG. 4 that describes the clinical study timeline.

Structure (SMILES)	level of EPA incorporated in red blood cells ([1]; compared with fish oil + XENICAL, all P values lower than 0.05)	level of EPA incorporated in red blood cells ([1]; compared with fish oil group without XENICAL)	incorporation of LC-PUFAs in tissue ([1]; rats with XENICAL, comparing groups A, B and C)	carrier for EPA (overall conclusion of the clinical trial) ([2]; human subjects treated with XENICAL, vs fish oil (TAG))	accretion of EPA in erythrocytes after 21 days (chronic effect) ([2]; humans, with XENICAL, in comparison to fish oil and XENICAL, p=0.0001 (FIG. 6))	accretion of EPA in plasma after 21 days (chronic effect) ([2]; humans, with XENICAL, relative to fish oil and XENICAL, p=0.0003 (FIG. 7))	EPA incorporation in red blood cells ([1]; rats fed fish oil with XENICAL vs fish oil without XENICAL, day 7)
CC/C=C\C/C=C\C/C=C\C/C=C\C/C=C\CCCC(=O)OCC(O)CO (stereo not shown) [Sn-1(3)-MAG-EPA, sn-1(3)-monoeicosapentaenoylglycerol]	statistically higher	even higher than the fish oil group	improved	better carrier for EPA than fish oil (TAG)	statistically significant	statistically significant	
CCCCCCCCCCC[C@@H](C[C@@H]1OC(=O)[C@H]1CCCCCC)OC(=O)[C@H](CC(C)C)NC=O [XENICAL® (ORLISTAT), tetrahydrolipstatin, reference compound]							decreases EPA incorporation in red blood cells

— patent US20170332691A1, “NUTRITIONAL COMPOSITIONS COMPRISING SN-1 (3) MONOACYLGLYCEROLS FOR USE IN THE TREATMENT OF MALABSORPTION OR MALDIGESTION IN INFANTS OR YOUNG CHILDREN” (NESTEC S.A., priority 2014, published 2017)
